Each block holds one sequence with its values, some of them ahead of it. Where no end group is shown, it is not given here.
Columns and labels:
[1] = tested on: D-TNFR-1 CRD2; experiment: Mirror-image phage display against D-TNFR-1 CRD2; type: binding; settings: after three rounds of biopanning, D-TNFR-1 CRD2 3 μg on streptavidin/neutravidin beads
From the text: The receptor mimic was subjected to mirror-image molecular screening as a means of seeking ligands that inhibit TNF-α binding. […] A D-peptide inhibitor could be potentially tested as a candidate against TNFR-1-related inflammatory diseases localized in the protease-rich gastrointestinal tract.[10b],[20] Consequently, the D-TNFR-1 CRD2 serves as a receptor mimic in mirror-image phage display (MIPD), a molecular screening technique that exploits the concept of reflection symmetry for the discovery of peptide ligands in opposite chirality.[5b] To conduct the experiment, D-TNFR-1 CRD2 was biotinylated at the C-terminus, immobilized onto streptavidin-coated beads, and subjected to phage display. Subsequently, bacteriophage libraries[21] consisted of the sequence format CX9C where X could be any canonical amino acid and terminal cysteine residues used for cyclization were tested. […] This was confirmed by an additional phage display experiment, in which the WLG motif was fixed in the format CX4WLGX2C.
The peptides were linked to the gene-3 coat protein (pIII) via a trialanine (Ala-Ala-Ala) spacer. Gel purified DNA encoding the libraries were ligated into the pCantab 5E phagemid vector, and transformed into chemically competent E. coli TG1. 20-fold excess of helper phage M13KO7 was used during rescue and amplification of the bacteriophages. […]

[2] = tested on: D-TNFR-1 CRD2; experiment: GCI single-cycle binding of TCPB-E-C1 and -C4 isomers to D-TNFR-1 CRD2; settings: single cycle of association and dissociation, 50 μM of each peptide conformer, blank subtracted
Protocol: (§1) Grating-coupled interferometry (GCI) experiments were performed on a Creoptix WAVEsystem using 4PCH-STA WAVE sensor chips (polycarboxylate surface, streptavidin coated) or 4PCH WAVE sensor chips (polycarboxylate surface) as indicated. Chips were first conditioned with borate buffer (0.1 M sodium borate, pH 9, 1 M Sodium chloride).
Figure S4.10: Grating-coupled interferometry (GCI) analysis of TCPB-E-C1 and -C4 isomers binding to
D-TNFR-1 CRD2. A single cycle of association and dissociation were passed over the sensor surface, with
μM of each peptide conformer. Sensograms shown are blank subtracted (target flow cell - flow cell with 50
TCPB-E-C4. The TCPB-E-C1 conformer was thus identified as the active form of the TCPB peptide.
(§2) (1 picture or pasted object on this page, not shown here)

[3] = tested on: D-TNFR-1 CRD2; experiment: GCI (RAPID, repeated analyte pulses of increasing duration) of TCPB-E isomers on D-TNFR-1 CRD2; type: binding; settings: fixed concentration of each conformer, D-TNFR-1 CRD2, blank subtracted
Protocol: as §1
S4. Identification of active binding peptide conformer
Figure S4.1: Six possible conformers of TCPB, oxidized with either glutathione (TCPB-E-G) or cysteine […]
TCPB solution phase oxidation […]
form. In a 10 mL round bottomed flask, the peptide (50 μM) was dissolved in 5 mL of buffer (0.1 M phosphate, pH 6) containing 0.5 mM of either cystine or glutathione. The reaction mixtures were stirred for six hours at room temperature. Reaction completion was confirmed by LCMS, by taking 10 μL of reaction mixture and diluting with 90 μL of distilled water. The two disulfide bonded products for each cysteine and glutathione mixture were isolated by semi-preparative HPLC.
as §2
Figure S4.6: LCMS disulfide bond mapping of isolated TCPB-E peak i, oxidized with glutathione disulfide.
Lyophilized peptide was digested with chymotypsin (0.1 mg/mL) in phosphate buffer ( 0.1 M, pH 6) at room temperature for 12 hours. […]

Sequence: CFHCIWLGDEC
phage display selection outcome, experiment 2 ([1]; CX4WLGX2C library): most abundant peptide sequence

sensor response/binding of TCPB-E isomers to D-TNFR-1 CRD2 [2]: highest sensor response
Sequence: CFHCIWLGDEC (disulfide (positions not given here)) [TCPB, intramolecular disulfide bond between residues 4–11, cysteinylated at position 1]
sensor response with respect to concentration among TCPB-E isomers [3]: highest sensor response

Sequence: CFHCVWLGMEC
phage display selection outcome, experiment 1 ([1]; CX9C library): enriched

Reference: PMC10885103, “Deciphering the Synthetic and Refolding Strategy of a Cysteine-Rich Domain in the Tumor Necrosis Factor Receptor (TNF-R) for Racemic Crystallography Analysis and D-Peptide Ligand Discovery” (ACS Bio & Med Chem Au, 2023)
